Here are results for two compounds from US20210267996A1, “Compounds for inhibition of inflammation” (Children`s Medical Center Corporation, priority 2018, published 2021).

Entries after “also recorded” stand apart in the source; their conditions may differ.

The test system of one test is NLRP3, GSDMD and HMGB1. As to the kind of experiment: Peritoneal macrophages of LPS-challenged mice (immunoblot). Type of test: in vivo, mouse. Particulars: 6 hrs after LPS. The procedure:
Drug administration and LPS-induced sepsis in mice. […] In the indicated group of mice in FIG. 5h, copper gluconate (0.15 mg/kg) was administered intraperitoneally 6 hr prior to the first injection of DSF. Sepsis was induced in C57BL/6 mice (8-10 weeks old) by intraperitoneal injection of LPS (E. coli O111:B4) at indicated concentrations. In some experiments, mice were treated with copper gluconate (0.15 mg/kg) or vehicle by intraperitoneal injection 5 hr before LPS challenge and then given DSF (50 mg/kg) intraperitoneally dissolved in sesame oil or vehicle 4 hr before and just before LPS challenge (15 mg/kg intraperitoneally). Peritoneal cells were collected by rinsing the peritoneal cavity with ice cold PBS containing 3% FBS 6 hr after LPS challenge. To measure cytokines, blood samples were collected by tail vein bleed 12 hr post LPS challenge and allowed to clot at room temperature. Sera obtained after centrifugation at 2,000×g for 10 min were analysed for inflammatory cytokines by ELISA.
Peritoneal macrophages were harvested 6 hrs later and analysed for NLRP3, GSDMD and HMGB1 by immunoblot.
In general terms: In western blotting, separated proteins are transferred to a membrane and probed.

The subject of another test is HT-29 cells. As to the kind of experiment: Necroptosis induced by TNFα, SMAC mimetic and z-VAD-fmk. The class given is cell-based. Particulars: SMAC mimetic.
Test [1] deals with mouse iBMDMs. As to the kind of experiment: AIM2 inflammasome cell death, iBMDMs transfected with poly(dA:dT). Type of test: cell-based. Particulars: poly(dA:dT) transfection.
For test [2], the system named is caspase-1, GSDMD, and pro-IL-1β. As to the kind of experiment: Caspase-1, GSDMD, pro-IL-1β cleavage and IL-1β secretion by immunoblot, THP-1. The class given is cell-based, human.
Another test deals with HEK293T cells. As to the kind of experiment: LDH release of HEK293T cells expressing caspase-11 and GSDMD. The class given is cell-based. On the procedure: FIG. 72 contains a bar graph showing results of an experiment when FL human WT or C191S GSDMD were co-expressed with caspase-11 in HEK293T cells. 8 h post transfection, the indicated amount of disulfiram was added and cell death was determined by LDH release 12 h later.
(§1) Cytotoxicity and cell viability assays: cell death and cell viability were determined by the lactate dehydrogenase release assay using the CytoTox 96 Non-Radioactive Cytotoxicity Assay kit (Promega) and by measuring ATP levels using the CellTiter-Glo Luminescent Cell Viability Assay (Promega), respectively, according to the manufacturer's instructions. Luminescence and absorbance were measured on a BioTek Synergy 2 plate reader.
To further confirm that disulfiram acts on Cys191, disulfiram inhibition of LDH release in HEK293T cells expressing caspase-11 and WT or C191S GSDMD was assessed.
On the technique in general: LDH in the medium is a marker of cell lysis.

Another test relates to THP-1 cells. As to the kind of experiment: Canonical inflammasome pyroptosis, LPS-primed THP-1 cells plus nigericin. Particulars: THP-1, nigericin. The class given is cell-based, human.
The next test concerns the target T1, human GSDMD-3C (Homo sapiens, UniProt P57764).
T1 sequence (P57764 1-271 limits assumed): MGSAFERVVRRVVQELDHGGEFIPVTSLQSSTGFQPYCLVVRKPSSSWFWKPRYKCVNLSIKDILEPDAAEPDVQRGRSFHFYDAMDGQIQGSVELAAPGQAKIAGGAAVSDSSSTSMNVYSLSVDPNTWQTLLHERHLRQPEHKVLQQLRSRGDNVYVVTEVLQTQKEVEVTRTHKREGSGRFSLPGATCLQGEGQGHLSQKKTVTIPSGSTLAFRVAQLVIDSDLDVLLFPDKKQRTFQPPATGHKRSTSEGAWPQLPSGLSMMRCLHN
As to the kind of experiment: Liposome leakage assay, GSDMD-3C plus 3C protease. Type of test: biochemical. On the set-up: Human GSDMD-3C and mouse GSDMA3-3C mutants were constructed by QuikChange Mutagenesis (Agilent Technologies); fused on or other part: His6-MBP tag, removed by TEV before use; The engineered 3C site is cut in the well by 3C protease. On the procedure:
Liposome leakage assay: fluorogenic liposome leakage assay detects leakage of Tb^3+ from Tb^3+-loaded liposomes incubated with GSDMD and caspase-11 (See References 7 and 9). Liposome leakage was detected by an increase in fluorescence when Tb^3+ bound to dipicolinic acid (DPA) in Buffer C. […] The fluorescence intensity of the well was measured at 545 nm with an excitation of 276 nm 1 hr after addition of caspase-11 using a Perkin Elmer EnVision plate reader. The final percent inhibition was calculated as [(fluorescencetest compound−fluorescencenegative control)/(fluorescencepositive control−fluorescencenegative control)]×100, where a well with GSDMD without the test compound was used as positive control, and a well without caspase-11 was used as negative control.
[LC retention time. […] (b).
To determine the relative contribution of caspase-11 inhibition versus GSDMD inhibition by disulfiram in pore formation, the caspase cleavage site in GSDMD was replaced with the rhinovirus 3C protease site (GSDMD-3C) and the 3C protease was used instead of caspase-11 in the liposome leakage assay.

For test [3], the system named is mouse iBMDMs. As to the kind of experiment: Non-canonical inflammasome pyroptosis, iBMDMs with LPS electroporation. The class given is cell-based. On the procedure: Cell lines and treatments: THP-1 cells and HEK293T cells (obtained from ATCC) were grown in RPMI with 10% heat-inactivated fetal bovine serum, supplemented with 100 U/ml penicillin G, 100 μg/ml streptomycin sulfate, 6 mM HEPES, 1.6 mM L-glutamine, and 50 μM 2ME. C57BL/6 mouse iBMDM cells were kindly provided by J. Kagan (Boston Children's Hospital) and cultured in DMEM with the same supplements. Cells were verified to be free of mycoplasma contamination. Transient transfection of HEK293T cells was performed using Lipofectamine 2000 (Invitrogen) according to the manufacturer's instructions. iBMDM cells were transfected by nucleofection using the Amaxa Nucleofector kit (VPA-1009). […] To examine IκBα. phosphorylation and degradation as well as IL-1β induction, PMA-differentiated THP-1 cells were stimulated with LPS (1 μg/ml) for 0.5, 1 and 4 hrs, respectively. For noncanoical inflammasome activation, 1 million iBMDM cells were electroporated with 1 μg ultra LPS.
as §1
In FIGS. 4, 6, and 8, PMA-differentiated LPS-primed human THP-1 were pre-treated with indicated concentrations of each compound for 1 h before adding nigericin or medium. The number of surviving cells was determined by CellTiter-Glo assay (FIGS. 4 and 6) and IL-1β in culture supernatants was assessed by ELISA (FIG. 8) 2 hrs later. In FIGS. 5, 7, and 9, mouse iBMDMs were pre-treated with each test compound for 1 hr before electroporation with PBS or LPS. The number of surviving cells was determined by CellTiter-Glo assay (FIGS. 5 and 7) and IL-1β in culture supernatants was assessed by ELISA (FIG. 9) 2.5 hrs later. In FIGS. 8 and 9, 40 μM concentration of test compounds were added.

Excerpt for HT-29 cells: Inhibition was shown by cell survival, assessed by CellTiter-Glo ATP luminescence, and membrane permeabilization, assessed by uptake of the membrane-impermeable dye SYTOX Green.
Description for THP-1 cells: Cell viability assay. […] Primed THP-1 cells were pretreated with each test compound for 1 hr before addition of 20 μM nigericin or medium as control. The number of surviving cells was determined by CellTiter-Glo assay 1.5 hrs later. The final percent cell viability was calculated using the formula [(luminescencetest compound−luminescencencenegative control)/(luminescencencepositive control−luminescencenegative control)]×100, where wells with only LPS were used as positive controls and wells treated with LPS and nigericin were used as negative controls.
In FIGS. 4, 6, and 8, PMA-differentiated LPS-primed human THP-1 were pre-treated with indicated concentrations of each compound for 1 h before adding nigericin or medium. The number of surviving cells was determined by CellTiter-Glo assay (FIGS. 4 and 6) and IL-1β in culture supernatants was assessed by ELISA (FIG. 8) 2 hrs later. […] In FIGS. 8 and 9, 40 μM concentration of test compounds were added. […] Graphs show the mean±s.d. and data shown are representative of three independent experiments. **P<0.01.

Consider `CCN(CC)C(=S)SSC(=S)N(CC)CC` [C-23, Tetraethylthiuram disulfide], for which, in the test on NLRP3, GSDMD and HMGB1, the “GSDMD processing in peritoneal macrophages” value is “equally processed”. The “NLRP3 priming in mice” value in the test with NLRP3, GSDMD and HMGB1 is listed as “did not inhibit NLRP3 priming in mice”. Also, in the test with HT-29 cells, the necroptosis result is on record as “had no effect on necroptosis”. Besides, the “cell death triggered by the AIM2 inflammasome” value in the test with mouse iBMDMs [1] was “impaired cell death in a dose-dependent manner”. Moreover, the “caspase-1, GSDMD, pro-IL-1β processing and IL-1β secretion” value in test [2] (1 μM with copper gluconate) was “completely blocked”; in test [2] (1 μM without copper), “had no effect”. The “C191S GSDMD-induced cell death (LDH release)” value with HEK293T cells (caspase-11 plus C191S GSDMD) is “only inhibited when 4 times as much disulfiram was added”. The “WT GSDMD-induced cell death (LDH release)” value with HEK293T cells (caspase-11 plus WT GSDMD) is “strongly inhibited”.

In the case of `Cc1ccc(S(=O)(=O)/C=C/C#N)cc1` [Bay 11-7082], the “inhibition of canonical inflammasome pyroptosis” value with THP-1 cells was “also inhibits the canonical inflammasome pathway; also recorded: more effective at inhibiting canonical inflammasome-dependent pyroptosis than disulfiram in the absence of copper”. The “inhibition of leakage by GSDMD-3C plus 3C protease versus GSDMD plus caspase-11” value on human GSDMD-3C is recorded as “substantially less able to inhibit leakage”. The “inhibition of non-canonical inflammasome pyroptosis” value in the test with mouse iBMDMs [3] is given as “less active than disulfiram”.
